Assay results reported in patent US12186332B2, “Methods for overcoming WNT/beta-catenin anti-cancer resistance in leukemia stem cells” (STOWERS INSTITUTE FOR MEDICAL RESEARCH, priority 2019, dated 2025).

Tests used:
[1] = test system: Akt-enhanced β-catenin activity (TOP-Luc); experiment: HTS TOPFlash/FOPFlash luciferase reporter dose-response; format: cell-based
[2] = test system: BM cells isolated from leukemic double mutants (LSCs, HSPCs); experiment: In vitro treatment of BM cells from leukemic mice; format: cell-based, mouse; settings: 11, 33 or 100 nM, 72 hours
Procedure: Doxorubicin, 0105375, and thioguanosine were added to 11, 33 or 100 nM and cultured for 72 hours and analyzed by flow cytometry for LSCs as in FIGS. 1A-1E. Fold change before and after culture for each population is indicated relative to equivalent vehicle control concentrations.
Doxorubicin, 0105375, and thioguanosine were added to 11, 33 or 100 nM and cultured for 72 hours and analyzed by flow cytometry for HSPCs as in FIGS. 1A-1E. Fold change before and after culture for each population is indicated relative to equivalent vehicle control concentrations.
Bone marrow cells from leukemic mice at 8 weeks post-induction were cultured overnight at 5-20×10^4 cells per well in 96-well U-bottom tissue culture plates (Becton, Dickinson and Company; Cat. No. 353077) in HSC expansion media in low O2 conditions as previously described (Perry et al. 2011). Doxorubicin (Sigma; D1515), 0105375 (University of Kansas CMLD compound), or Thioguanosine was mixed with HSC expansion media and added to the cultures to obtain final concentrations of 11, 33, 100 nM. Equivalent amounts of DMSO alone (vehicle control) were added to parallel cultures for comparison. Half-media changes were performed approximately every 24 hours. Cultures were analyzed after 72 hours exposure to the indicated drug.

[3] = test system: Wnt-signaling reporter activity (TCF/Lef:H2B-GFP); experiment: TCF/Lef:H2B-GFP reporter mice; format: in vivo, mouse; settings: low-dose DXR (legend: [Low]nanoDXR, 3 hours post-injection)
Text: Percent of TCF/Lef:H2B-GFP^+ cells for each population are indicated.

[4] = test system: LSCs and blast cells of leukemia mice; experiment: Immune-checkpoint blocker treatment / CD8+ T cell depletion in leukemia mice; format: in vivo, mouse; settings: [Low]DXR after anti-CD8 depletion
Procedure: For immune-checkpoint blocker treatment, 250 μg anti-PD-1 or isotype control (BioXcell) was injected intravenously every other day for a total of 3 injections. For CD8^+ T cell depletion, 2×100 μg and 1×250 μg of anti-CD8a or isotype control (BioXcell) was injected intravenously every other day.

pS^552-β-catenin = experiment: FACS for pS552-β-catenin in populations from treated leukemic mice; format: in vivo, mouse; settings: [Low]DXR; 4 days post-treatment; LSCs
Procedure: Percent of LSC, HSPC or blast cell population expressing pS^552-β-catenin is indicated for each treatment. Numbers indicate mean±SD; n=3-5 per group.
For FACS analysis using PE-conjugated monoclonal anti-pS552-β-catenin antibody, cells were washed twice after cell surface staining, resuspended in 250ul of BD Fixation/Permeabilization® solution, incubated for 20 minutes at 4°, washed 2× with 1 ml of 1×BD Perm/Wash Buffer®, resuspended with 100 ul 1×BD Perm/Wash Buffer®, added […] anti-pS552-β-catenin antibody per 100 ul solution containing up to 3 million cells, incubated 2 hours on ice with rocking (resuspended every 15 minutes), washed 2 times and resuspended in PBS+2% FBS for analysis. BM from β-cat knockout mouse was harvested at 2-3 weeks post-knockout induction and stained alongside other test samples.

[5] = test system: leukemia (T-ALL) in Pten:β-cat^Act mice; experiment: Long-term survival of treated leukemic mice; format: in vivo, mouse
Procedure: Treatment schematic and Kaplan-Meier curves of leukemic mice treated as indicated. Red arrow indicates day 0 in survival curve.
Dashed line indicates day of final [Low]nanoDXR treatment.
Chemotherapy for the animal model consisted of Nelarabine (Selleck) and Dexamethasone (BioVision) administered daily for 5 days consecutively. 43.4 mg/ml Nelarabine was administered intravenously via the tail vain according to the formula: Body Weight (g)×5=volume to inject (μl), which yielded 217 mg/kg. 2.5 mg/ml Dexamethasone was injected intraperitoneally according to the formula: Body Weight (g)×4=volume to inject (μl), yielding 10 mg/kg. […] [Low] NanoDXR treatment used doxorubicin nanoparticles (Tran et al. 2014) administered as a single IV injection once per week on day 1 relative to above treatments using 0.8 mg/kg. Maintenance [Low] NanoDXR consisted of once per week injections of 0.4 mg/kg. Groups combining Nelarabine with Doxorubicin used a single injection containing both drugs. All drugs were solubilized in 45% (2-Hydroxypropyl)-p-cyclodextrin (HBC) or 0.9% NaCl.

COc1cccc2c1C(=O)c1c(O)c3c(c(O)c1C2=O)C[C@@](O)(C(=O)CO)C[C@@H]3O[C@H]1C[C@H](N)[C@H](O)[C@H](C)O1 [DXR, doxorubicin]
concentration at which Akt-enhanced β-catenin activity (TOP-Luc) is specifically inhibited (compare to FOP-Luc control) ([1]; HEK-293 TOPFlash vs FOPFlash Akt^Act βcat^Act cells): lower than 1 μM | specificity (FOP-Luc) at higher concentrations ([1]; higher concentrations (above 1 μM)): reduced specificity | effect on HSPCs relative to vehicle [2]: lower effect | effect on LSCs relative to vehicle [2]: significantly reduced | Wnt-signaling reporter activity [3]: significantly inhibits | effect on LSCs after CD8+ T cell depletion [4]: no longer significantly reduced LSCs | pS552-β-catenin expression (pS^552-β-catenin): substantially reduced | survival compared to vehicle alone ([5]; clinical-dose DXR combined with chemotherapy): significantly reduced survival | improvement of survival ([5]; mouse, in vivo): did not
